Holding throughout (format): in vivo, rat
In one series the test system is blood glucose. The series can be described thus: Blood glucose after oral gavage in 24 h fasted rats (glucose oxidase kit). Conditions: fasted 24 h, gavage of 0.736 M in 3 ml saline; for increase in blood glucose compared with saline and glucose groups: male rats, 0-150 min. As to the method: In the experiments performed and described herein, there were four groups of Spague Dawley type male rats, weighting approximately 300 g each, consisting of four (4) animals in each group. The animals were fed freely on standard rat chow and were then fasted for 24 hours. At the end of this period, said animals were lightly anaesthetized with nitrogen oxide and halothane, the body temperature being maintained with a heat lamp, and the femoral artery was cannulated, with a heparinized catheter and syringe, so that multiple blood samples could be obtained at serial time points. The test compounds were administered by gavaging the animals, said compounds having being dissolved in 3 ml of normal saline. The concentrations of the compounds administered to three groups of animals were: 0.736 M (550 mg in 3 ml of saline) of N-butyryl-D-glucosamine (designated as GlcNBu), or 0.736 M (398 mg in 3 ml of saline) of D-glucose (designated as Glc), or a combination of 0.736 M of GlcNBu and 0.736 M Glc dissolved together in 3 ml of saline. No compound was administered to the fourth group of animals (which consisted of a control group) and animals in this group were gavaged instead with 3 ml of normal saline.
Blood (0.4 ml) was collected at 10 min before the gavage (designated as −10 min in the accompanying FIG. 1), immedietly before the gavage (designated as 0 min) and at the following time points (timed in minutes after time 0) 5, 15, 30, 60, 90, 120 and 150, as shown in the accompanying figure. The glucose concentration in the blood was determined by a commercial glucose oxidase kit, designed for the determination of blood glucose in the blood of patients with diabetes. The determinations were done in triplicate for each time point and for each of the four animals in each of the four groups.
With reference to FIG. 1, each point of the graph represents the mean of the blood glucose concentrations obtained from the four rats in each group of animals. […]

A short description of series [1]: Lean body mass and fat content by Dual Energy X-ray Absortiometry after 6 months daily oral feeding of control and ovariectomised rats. The following applies: daily oral feeding 6 months (GlcNBu 200 mg/kg/day or equimolar Glc). As to the method:
In another experiment, there were four Groups of Sprague Dawley type female rats, with eight animals in each group, of approximately 250 g in weight. Two of the said groups underwent surgical ovariectomy and will be referred as the ovariectomised Groups (OVX). […] One C group and one OVX Group were fed GlcNBu, 200 mg/kg/day orally and one C group and one OVX Group were fed an equimolar amount of Glc daily. The daily feedings continued for all of the animals for a period of 6 months. At the end of the 6 month period the animals were euthanized, blood was obtained by cardiac puncture for glucose measurements, 24 hours after the administration of the Glc or GlcNBu, and their body fat and lean body mass was estimated, using a Hologic 4500 Dual Energy X-ray Absortiometry instrument, with small animal software.
It was previously known that ovariectomy increases the body weight and the fat content of animals undergoing this procedure. The results for the lean body mass and the fat content are shown in Table 1 and presented as the mean values±the standard deviations (SD) for each group of Animals.

Series [2] in a line: Incorporation of radioactivity from radiolabelled GlcNBu into plasma glucose, glucosamine or N-acetylglucosamine (HPLC of acetonitrile-soluble plasma fraction). The following applies: rats, oral or IP, plasma acetonitrile-soluble fractions up to 4 hour, amine column HPLC. As to the method:
In order to test whether GlcNBu, in fact, was incorporated into serum glucose, or glucosamine, radiolabelled GlcNBu was prepared from [^3H] glucosamine and administered either orally or intra-peritoneally (IP) to rats, under identical conditions shown in FIG. 1. Plasma was sampled serially and plasma proteins were precipitated with acetonitrile and the radioactivity into the acetonitrile-soluble fraction containing GlcNBu metabolites was quantified. It can be seen that the radioactive profile from the oral administration of [^3H] GlcNBu is different than the glucose concentration profiles (FIG. 1). Acetonitrile-soluble fractions illustrated in FIG. 2, including the 4 hour time point were analyzed by HPLC, using an amine column and acetonitrile/water mixtures as the mobile phase (1 mL/min flow rate), Absorbance at 195 nm and radioactivity of 2 mL fractions were monitored. Radiolabelled and non-radiolabelled standards of GlcNBu, glucose, glucosamine, N-acetylglucosamine and various disaccharides were used as standards for the column. […] It is, therefore, unlikely that a significant proportion of orally fed GlcNBu is converted to glucose, glucosamine or N-acetylglucosamine, over the time course of the study. Also, glucose or glucosamine are not known to be converted into GlcNBu by animal tissues.

[3] abbreviates: control (C, non-ovariectomised) female rats.
Setting [4] is: ovariectomised (OVX) female rats.

SMILES strings stand for the structures.

For the molecule `O=C[C@H](O)[C@@H](O)[C@H](O)[C@H](O)CO` [Glc, D-glucose, reference compound], the “blood glucose concentration rose from time 0 to” value in the series with blood glucose (male Sprague Dawley rats, followed to 150 min, mean of 4 rats) is about 7 mmol/L. Moreover, in series [1] (setting [3]), the “Fat content (g, mean ± SD)” value turned out to be 77.45 ± 21.0 g and the “Lean body mass (g, mean ± SD)” value is given as 283.93 ± 21.5 g. For the same molecule, in series [1] (setting [4]), the “Fat content (g, mean ± SD)” value stood at 112.94 ± 30.9 g and the “Lean body mass (g, mean ± SD)” value stood at 296.87 ± 6.2 g.

For the molecule `CCCC(=O)N[C@H]1C(O)O[C@H](CO)[C@@H](O)[C@@H]1O` (stereo partly drawn) [GlcNBu, N-butyryl-D-glucosamine], the “increase in blood glucose compared with saline and glucose groups” value in the series with blood glucose is “higher than those gavaged with saline but lower than those rats gavaged with glucose”; in the series on blood glucose (listed as N-butyryl-D-glucosamine), “lower blood glucose”. Moreover, the “Fat content (g, mean ± SD)” value in series [1] (setting [3]) came out at 74.57 ± 23.2 g; in series [1] (setting [4]), 126.08 ± 38.4 g. Further, the results for the “Lean body mass (g, mean ± SD)” value in series [1] (setting [3]) and in series [1] (setting [4]) were 264.02 ± 12.1 g and 307.52 ± 34.0 g, respectively.

As to `CCCC(=O)N[C@H]1C(O)O[C@H](CO)[C@@H](O)[C@@H]1O` (stereo partly drawn) [[^3H] GlcNBu], the “incorporation of radioactivity into glucose, glucosamine or N-acetylglucosamine” value in series [2] is given as “no significant incorporation of radioactivity”.
